The assay has as its system JFH1-based recombinants of genotypes 1a, 1b, 2a, 2b, and 6a. The assay is classed as cell-based, hepatitis C virus. Particulars: 500 IU/mL interferon-α2b, 20 μM ribavirin or 50 μM amantadine; for decrease in supernatant HCV RNA titers / decrease in the number of infected cells: 72 hrs, Huh7.5 cultures infected with genotype 1a/1b, 2a/2b and 6a recombinants.

On to `NC12CC3CC(CC(C3)C1)C2` [amantadine], for which the “antiviral effect of treatment (infected cells and supernatant HCV RNA titers)” value is given as “no apparent effect”; the “decrease in supernatant HCV RNA titers” value is “did not decrease”; the “decrease in the number of infected cells” value is given as “did not decrease”.

Regarding `NC(=O)c1ncn([C@@H]2O[C@H](CO)[C@@H](O)[C@H]2O)n1` [ribavirin], the “antiviral effect of treatment (infected cells and supernatant HCV RNA titers)” value is on record as “no apparent effect”; the “decrease in supernatant HCV RNA titers” value is “did not decrease”; the “decrease in the number of infected cells” value was “did not decrease”.

The values are drawn from patent US8569472B2, “Efficient cell culture system for hepatitis C virus genotype 6A” (priority 2007, dated 2013).
